In patent US20090311217A1, “3-SUBSTITUTED-1H-INDOLE COMPOUNDS, THEIR USE AS MTOR KINASE AND PI3 KINASE INHIBITORS, AND THEIR SYNTHESES” (priority 2008, published 2009):
Like-named read-outs stand apart in the source and are kept apart here.

Legend:
human TOR = molecular target: T1, human TOR (Homo sapiens, UniProt P42345); experiment: mTOR enzyme assay (DELFIA, His6-S6K substrate); assay type: biochemical
T1 construct: FLAG

PI3K-alpha = PI3K-alpha (Homo sapiens, UniProt P42336); experiment: PI3K-alpha fluorescence polarization assay; assay type: biochemical
[1] = read-out: mTOR Kinase Avg. IC50

Sequence of PI3K-alpha (P42336 whole entry, species assumed): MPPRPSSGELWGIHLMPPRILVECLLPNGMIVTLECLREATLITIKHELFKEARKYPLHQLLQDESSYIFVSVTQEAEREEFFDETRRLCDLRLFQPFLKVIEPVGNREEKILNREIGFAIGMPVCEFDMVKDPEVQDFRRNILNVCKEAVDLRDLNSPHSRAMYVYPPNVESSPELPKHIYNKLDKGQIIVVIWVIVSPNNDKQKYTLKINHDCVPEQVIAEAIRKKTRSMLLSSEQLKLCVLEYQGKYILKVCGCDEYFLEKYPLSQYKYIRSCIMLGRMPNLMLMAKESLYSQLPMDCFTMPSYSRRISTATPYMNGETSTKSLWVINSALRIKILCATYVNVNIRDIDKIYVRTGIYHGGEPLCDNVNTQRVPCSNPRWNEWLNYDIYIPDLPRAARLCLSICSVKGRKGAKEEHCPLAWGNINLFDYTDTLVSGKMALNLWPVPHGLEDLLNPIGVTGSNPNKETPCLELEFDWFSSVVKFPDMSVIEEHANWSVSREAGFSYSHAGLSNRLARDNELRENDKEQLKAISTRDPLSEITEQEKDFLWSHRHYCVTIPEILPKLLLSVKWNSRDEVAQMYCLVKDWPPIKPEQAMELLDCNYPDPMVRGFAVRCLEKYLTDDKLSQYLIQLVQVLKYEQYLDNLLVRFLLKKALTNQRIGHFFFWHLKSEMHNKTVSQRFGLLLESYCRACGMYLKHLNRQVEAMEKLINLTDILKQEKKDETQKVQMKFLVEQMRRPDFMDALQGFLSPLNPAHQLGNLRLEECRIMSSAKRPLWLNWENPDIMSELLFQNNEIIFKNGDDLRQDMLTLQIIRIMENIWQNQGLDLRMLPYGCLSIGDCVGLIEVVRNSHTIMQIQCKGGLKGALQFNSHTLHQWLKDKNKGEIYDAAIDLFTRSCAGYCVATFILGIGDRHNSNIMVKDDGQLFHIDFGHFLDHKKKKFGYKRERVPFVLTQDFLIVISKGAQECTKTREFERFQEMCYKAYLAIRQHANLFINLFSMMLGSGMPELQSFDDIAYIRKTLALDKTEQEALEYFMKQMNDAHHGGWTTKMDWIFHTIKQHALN
Sequence of PI3K-alpha (P27986 whole entry partner, species assumed): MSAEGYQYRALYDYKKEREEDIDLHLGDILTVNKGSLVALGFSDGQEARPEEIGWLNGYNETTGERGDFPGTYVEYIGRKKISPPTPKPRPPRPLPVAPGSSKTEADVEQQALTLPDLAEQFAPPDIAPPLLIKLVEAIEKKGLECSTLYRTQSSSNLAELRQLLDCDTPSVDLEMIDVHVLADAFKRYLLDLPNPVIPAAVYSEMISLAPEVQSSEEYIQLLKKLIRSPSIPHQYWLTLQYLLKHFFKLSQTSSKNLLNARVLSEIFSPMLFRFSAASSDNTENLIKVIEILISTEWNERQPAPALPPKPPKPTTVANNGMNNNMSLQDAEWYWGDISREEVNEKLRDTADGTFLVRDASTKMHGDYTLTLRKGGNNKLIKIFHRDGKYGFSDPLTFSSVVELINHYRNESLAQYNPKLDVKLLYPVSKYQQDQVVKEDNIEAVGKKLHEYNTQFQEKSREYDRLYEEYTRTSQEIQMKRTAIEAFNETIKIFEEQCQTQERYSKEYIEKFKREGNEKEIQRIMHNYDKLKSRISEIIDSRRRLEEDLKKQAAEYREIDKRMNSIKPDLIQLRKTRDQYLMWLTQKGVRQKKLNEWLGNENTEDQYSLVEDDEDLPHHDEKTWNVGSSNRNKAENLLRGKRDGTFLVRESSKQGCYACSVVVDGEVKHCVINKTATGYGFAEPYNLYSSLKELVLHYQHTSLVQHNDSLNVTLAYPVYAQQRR

Structure (SMILES) | IC50 (human TOR; [1]) | IC50 (PI3K-alpha; read-out: PI3Kα Avg. IC50) | IC50 (human TOR; mTOR Kinase Avg. IC50) | IC50 (PI3K-alpha; PI3Kα Avg. IC50)
O=C1C(=Cc2c[nH]c3ccc(OCc4ccccc4)cc23)Oc2cc(O)cc(O)c21 [Example 52, 2-{[5-(benzyloxy)-1H-indol-3-yl]methylene}-4,6-dihydroxy-1-benzofuran-3(2H)-one] | > 5 µM | 1.89 µM |  | 
O=C1/C(=C/c2c[nH]c3ccc(Cl)cc23)Oc2c1ccc(O)c2O [Example 63, (2Z)-2-[(5-chloro-1H-indol-3-yl)methylene]-6,7-dihydroxy-1-benzofuran-3(2H)-one] | > 20 µM | 0.431 µM |  | 
O=C1C(=Cc2c(-c3ccccn3)[nH]c3ccccc23)Oc2cc(O)cc(O)c21 [Example 72, 4,6-dihydroxy-2-[(2-pyridin-2-yl-1H-indol-3-yl)methylene]-1-benzofuran-3(2H)-one] |  |  | 0.0213 µM | 3.65 µM
O=C1C(=Cc2c[nH]c3ccccc23)Oc2cccc(O)c21 [Example 74, 4-hydroxy-2-(1H-indol-3-ylmethylene)-1-benzofuran-3(2H)-one] | 9.8 µM | 12 µM |  | 
O=C1C(=Cc2c(-c3ccccc3)[nH]c3ccccc23)Oc2cccc(O)c21 [Example 75, 4-hydroxy-2-[(2-phenyl-1H-indol-3-yl)methylene]-1-benzofuran-3(2H)-one] | 5.9 µM | 2.52 µM |  | 
O=C1C(=Cc2c(-c3ccc(Cl)cc3)[nH]c3ccccc23)Oc2cccc(O)c21 [Example 76, 2-{[2-(4-chlorophenyl)-1H-indol-3-yl]methylene}-4-hydroxy-1-benzofuran-3(2H)-one] | 10 µM | > 10 µM |  | 
O=C1C(=Cc2c[nH]c3ccc(Br)cc23)Oc2cccc(O)c21 [Example 77, 2-[(5-bromo-1H-indol-3-yl)methylene]-4-hydroxy-1-benzofuran-3(2H)-one] | 17.5 µM | > 10 µM |  | 
O=C1C(=Cc2c(Br)[nH]c3ccccc23)Oc2cc(O)cc(O)c21 [Example 80, 2-[(2-bromo-1H-indol-3-yl)methylene]-4,6-dihydroxy-1-benzofuran-3(2H)-one] | 0.49 µM | > 10 µM |  | 
O=C1C(=Cc2c(Br)[nH]c3ccccc23)Oc2c1ccc(O)c2O [Example 81, 2-[(2-bromo-1H-indol-3-yl)methylene]-6,7-dihydroxy-1-benzofuran-3(2H)-one] | > 20 µM | 0.234 µM |  | 
Cc1c(C=C2Oc3cc(O)cc(O)c3C2=O)c2ccccc2n1CCCl [Example 92, 2-{[1-(2-chloroethyl)-2-methyl-1H-indol-3-yl]methylene}-4,6-dihydroxy-1-benzofuran-3(2H)-one] | 2.6 µM | 2.04 µM |  | 
Cc1c(C=C2Oc3cc(O)cc(O)c3C2=O)c2ccccc2n1CCCCl [Example 93, 2-{[1-(3-chloropropyl)-2-methyl-1H-indol-3-yl]methylene}-4,6-dihydroxy-1-benzofuran-3(2H)-one] | > 5 µM | 2.38 µM |  | 
O=C1C(=Cc2c(-c3ccccc3)n(Cc3cccnc3)c3ccccc23)Oc2cc(O)cc(O)c21 [Example 153, 4,6-dihydroxy-2-{[2-phenyl-1-(pyridin-3-ylmethyl)-1H-indol-3-yl]methylene}-1-benzofuran-3(2H)-one] | 2.9 µM | 1.58 µM |  | 
O=C1C(=Cc2c(-c3ccccc3)n(Cc3ccncc3)c3ccccc23)Oc2cc(O)cc(O)c21 [Example 154, 4,6-dihydroxy-2-{[2-phenyl-1-(pyridin-4-ylmethyl)-1H-indol-3-yl]methylene}-1-benzofuran-3(2H)-one] | 0.54 µM | 1.58 µM |  | 
O=C1C(=Cc2c(-c3ccccc3)n(CCN3CCNCC3)c3ccccc23)Oc2cc(O)cc(O)c21 [Example 160, 4,6-dihydroxy-2-{[2-phenyl-1-(2-piperazin-1-ylethyl)-1H-indol-3-yl]methylene}-1-benzofuran-3(2H)-one] | 0.82 µM | 1.01 µM |  | 
NC(=O)Cn1c(-c2ccccc2)c(C=C2Oc3cc(O)cc(O)c3C2=O)c2ccccc21 [Example 161, 2-{3-[(4,6-dihydroxy-3-oxo-1-benzofuran-2(3H)-ylidene)methyl]-2-phenyl-1H-indol-1-yl}acetamide] | 0.6 µM | 1.76 µM |  | 
Cc1[nH]c2ccc([N+](=O)[O-])cc2c1C=C1Oc2cc(O)cc(O)c2C1=O [Example 162, 4,6-dihydroxy-2-[(2-methyl-5-nitro-1H-indol-3-yl)methylene]-1-benzofuran-3(2H)-one] | > 20 µM | 2.45 µM |  | 

The next lines start with results.

IC50 (human TOR; [1]) | IC50 (PI3K-alpha; read-out: PI3Kα Avg. IC50) | Structure (SMILES) | IC50 (human TOR; mTOR Kinase Avg. IC50) | IC50 (PI3K-alpha; PI3Kα Avg. IC50)
5.3 µM | 6.76 µM | N#Cc1ccc2c(C=C3Oc4cc(O)cc(O)c4C3=O)c[nH]c2c1 [Example 167, 3-[(4,6-dihydroxy-3-oxo-1-benzofuran-2(3H)-ylidene)methyl]-1H-indole-6-carbonitrile] |  | 
> 20 µM | 6.54 µM | O=C1C(=Cc2c[nH]c3cc4c(cc23)OCO4)Oc2cc(O)cc(O)c21 [Example 168, 2-(5H-[1,3]dioxolo[4,5-f]indol-7-ylmethylene)-4,6-dihydroxy-1-benzofuran-3(2H)-one] |  | 
9.1 µM | 3.59 µM | CS(=O)(=O)c1ccc2c(C=C3Oc4cc(O)cc(O)c4C3=O)c[nH]c2c1 [Example 169, 4,6-dihydroxy-2-{[6-(methylsulfonyl)-1H-indol-3-yl]methylene}-1-benzofuran-3(2H)-one] |  | 
> 20 µM | 5.77 µM | Cc1ccc2[nH]cc(C=C3Oc4cc(O)cc(O)c4C3=O)c2c1 [Example 170, 4,6-dihydroxy-2-[(5-methyl-1H-indol-3-yl)methylene]-1-benzofuran-3(2H)-one] |  | 
19 µM | 0.936 µM | O=C1C(=Cc2c[nH]c3cc(Cl)ccc23)Oc2cc(O)cc(O)c21 [Example 172, 2-[(6-chloro-1H-indol-3-yl)methylene]-4,6-dihydroxy-1-benzofuran-3(2H)-one] |  | 
8.7 µM | 1.55 µM | O=C1C(=Cc2c[nH]c3cc(F)ccc23)Oc2cc(O)cc(O)c21 [Example 176, 2-[(6-fluoro-1H-indol-3-yl)methylene]-4,6-dihydroxy-1-benzofuran-3(2H)-one] |  | 
12.5 µM | 1.47 µM | O=C1C(=Cc2c[nH]c3ccc([N+](=O)[O-])cc23)Oc2cc(O)cc(O)c21 [Example 178, 4,6-dihydroxy-2-[(5-nitro-1H-indol-3-yl)methylene]-1-benzofuran-3(2H)-one] |  | 
16 µM | 2.47 µM | O=C1C(=Cc2c[nH]c3cc([N+](=O)[O-])ccc23)Oc2cc(O)cc(O)c21 [Example 179, 4,6-dihydroxy-2-[(6-nitro-1H-indol-3-yl)methylene]-1-benzofuran-3(2H)-one] |  | 
> 20 µM | 3.12 µM | O=C1C(=Cc2c[nH]c3c([N+](=O)[O-])cccc23)Oc2cc(O)cc(O)c21 [Example 180, 4,6-dihydroxy-2-[(7-nitro-1H-indol-3-yl)methylene]-1-benzofuran-3(2H)-one] |  | 
6.1 µM | 1.2 µM | O=C(Nc1ccc2[nH]cc(C=C3Oc4cc(O)cc(O)c4C3=O)c2c1)c1ccco1 [Example 183, N-{3-[(4,6-dihydroxy-3-oxo-1-benzofuran-2(3H)-ylidene)methyl]-1H-indol-5-yl}-2-furamide] |  | 
16 µM | 5.76 µM | COc1ccc2c(C=C3Oc4cc(O)cc(O)c4C3=O)c[nH]c2c1 [Example 186, 4,6-dihydroxy-2-[(6-methoxy-1H-indol-3-yl)methylene]-1-benzofuran-3(2H)-one] |  | 
